The conditions of experiment [1]: hen; cited from earlier work.
For experiment [2] the following is noted: pig; cited from earlier work.
Another experiment concerns coccidia. Conditions: fowl; cited from earlier work.
The subject of the next experiment is Mycoplasma hyosynoviae. The experiment is described as follows: MIC assay, 7 field isolates of Mycoplasma hyosynoviae. It is filed as cell-based. Conditions: Mycoplasma; 7 field isolates. As for the experimental part:
Tissue samples are obtained from the lungs of pigs from various enzootic pneumonia of pigs (EPP)--affected herds. Samples are shipped on dry ice for culture. Four isolates from lung samples initially isolated for recovery of Mycoplasma hyopneumoniae were reisolated for Mycoplasma hyosynoviae after it had been noted from the lung samples submitted (re-stored at -70° C.), during culture for M. hyopneumoniae, that some samples yielded luxuriant growth of colonies having the typical morphology of Mycoplasma hyosynoviae. Three further isolates were recovered from other lung samples provided. All isolates were serologically identified by disc growth inhibition with specific rabbit antiserum raised against Mycoplasma hyosynoviae. A commerically available solid medium (Mycoplasma Experience Ltd.) is used to isolate M. hyosynoviae from lung tissue. A liquid medium (Mycoplasma Experience Ltd.) containing phenol red and arginine (pH 7.0) is used for the MIC assay.
(§1) Stock solutions of test compound are prepared at 1 mg/ml concentration in deionised water, sterilised by filtration through 0.2μ pore size membrane filters (Sartorius Minisart, N) and stored at -20° C. For use in the MIC tests the stock solutions are diluted in liquid medium to double the final concentrations required. MIC tests are carried out according to the method of Tanner and Wu, Avian Diseases 36 (1992) 714-717. Actively growing challenge cultures are prepared either from 1 ml aliquots of broth cultures stored at -70° C. or from cultures stored on agar at -70° C. The challenge cultures are diluted to give a target titre of 10^3 to 10^5 colour changing units/ml. 0.1 ml aliquots of challenge inocula are mixed with 0.1 ml aliquots of antibiotic dilution in microtitre wells. Each microtitre plate contains uninoculated media at pH 7.6 (end point control) and antibiotic-free inoculated challenge controls. All plates are sealed with adhesive film and incubated aerobically at 36° C. MICs are recorded when the colour change in the challenge control wells matches the pH of the end point control. The MIC is the lowest concentration showing no colour change.

A further experiment has as its system M. hyopneumoniae. The experiment is described as follows: MIC, microtitre broth, ten field isolates and type strain J of M. hyopneumoniae. It is filed as cell-based, Mycoplasma hyopneumoniae.
Text: Tissue samples are obtained from the lungs of pigs from various enzootic pneumonia of pigs (EPP)-affected herds. Samples are shipped on dry ice for culture. M. hyopneumoniae is recovered from freshly sectioned lung tissue by direct culture onto Mycoplasma Experience agar. This technique allows the distinctive colonies of M. hyopneumoniae to be recognised and readily separated, by cloning from other faster growing mycoplasma species such as Mycoplasma hyorhinis, often present in EPP lung samples. Isolates are subcultured and identified by disc growth inhibition using specific rabbit antiserum raised to M. hyopneumoniae NCTC 10110.
Cultures for antibiotic challenge are prepared in Mycoplasma Experience broth, incubated aerobically at 36° C.
A commercially available solid medium (Mycoplasma Experience Ltd.) is used to isolate M. hyopneumoniae from lung tissue. A liquid medium (Mycoplasma Experience Ltd.) containing phenol red and glucose (pH 7.6) is used for the MIC assays.
as §1, with “Tanner &” for “Tanner and”, “pH 6.8 (M. hyopneumoniae)” for “pH 7.6”, “wells match” for “wells matches”

Setting [3] is: Mesomycoplasma hyopneumoniae, field strains (n = 10).

The structures appear in SMILES notation. Converted amounts (≈) assume the structure as drawn. Like-named read-outs stand apart in the source and are kept apart here.

The values below come from patent US6130250A, “Veterinary use of a pleuromutilin derivative” (priority 1996, dated 2000).

For `C=C[C@]1(C)C[C@@H](OC(=O)CSC(C)(C)CNC(=O)[C@H](N)C(C)C)[C@]2(C)[C@H](C)CC[C@]3(CCC(=O)[C@H]32)[C@@H](C)[C@@H]1O` [compound of formula I, 14-O-[1-[(R)-2-amino-3-methylbutyrylamino]-2-methylpropan-2-ylthioacetyl]mutilin], the “dosage showing growth-promoting activity” value in experiment [1] and in experiment [2] was 10-50 mg/kg of feed each time. Further, the “dosage showing activity against coccidia” value with coccidia was 20-150 mg/kg of feed.
For `CCN1CCN(c2cc3c(cc2F)c(=O)c(C(=O)O)cn3C2CC2)CC1` [enrofloxacin], the MIC is 0.025 to 0.25 µg/mL (≈ 0.0696 to 0.696 µM) against Mycoplasma hyosynoviae; 0.025 µg/mL (≈ 0.0696 µM) in the experiment with M. hyopneumoniae (Mesomycoplasma hyopneumoniae, NCTC10110, Type Strain J (NCTC 10110), read-out: MIC); 0.0025 to 0.025 µg/mL (≈ 0.00696 to 0.0696 µM) in the experiment with M. hyopneumoniae (Mesomycoplasma hyopneumoniae, field strains (n = 10), read-out: MIC range). Further, in the experiment on M. hyopneumoniae (setting [3]), the MIC50 was found to be 0.005 µg/mL (≈ 0.0139 µM). Further, the MIC90 in the experiment with M. hyopneumoniae (setting [3]) was found to be 0.01 µg/mL (≈ 0.0278 µM). The “susceptibility of field isolates” value in the experiment on M. hyopneumoniae (field isolates) was “very good sensitivity”.

One may read the MIC as the lowest concentration that inhibits growth of the organism. The MIC50 is an inhibitory concentration at the 50% level, which refers to growth in some studies and to a panel of isolates in others. A higher MIC50 goes with lower susceptibility. What is called MIC90 is the lowest concentration that inhibits either 90% of growth or 90% of the strains tested, depending on the study. Lower therefore signals greater potency.
